Results taken from US11566002B2, “Substituted tetrahydrocyclopenta[C]pyrroles, substituted dihydropyrrolizines, analogues thereof, and methods using same” (priority 2018, dated 2023).

The compounds below were run on HBV rcDNA (assay: HepDE19 assay with bDNA quantitation of HBV rcDNA). Conditions: HepDE19 cells, Tet-free medium, 7 day-incubation, rcDNA measured by Quantigene 2.0 bDNA assay, top concentration 25 μM; read-out: DE-19 bDNA EC50.
Assay type: cell-based, hepatitis B virus
Outline: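 HepDE19 cells (50,000/well) switched to Tet-free medium, then treated 7 days at 37° C with compounds from 25 μM (½-log, 8-point, duplicate; 0.5% DMSO). rcDNA quantified by bDNA with HBV probes; EC50/EC90 by 4-parameter fit. CC50 from CTG ATP on 5,000 cells/well after 4 days.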

Structure (SMILES) | EC50
Cn1c(Cl)c2c(c1C(=O)Nc1ccc(F)c(Cl)c1)CCCC2NC(=O)OCc1cn[nH]n1 (single isomer, unassigned) [Compound 137, (2H-1,2,3-Triazol-4-yl)methyl (3-chloro-1-((3-chloro-4-fluorophenyl)carbamoyl)-2-methyl-4,5,6,7-tetrahydro-2H-isoindol-4-yl)carbamate] | 160 nM
Cn1cnc(COC(=O)NC2CCc3c2c(Br)n(C)c3C(=O)Nc2ccc(F)c(Cl)c2)n1 (single isomer, unassigned) [Compound 48, (1-Methyl-1H-1,2,4-triazol-3-yl)methyl (3-bromo-1-((3-chloro-4-fluorophenyl)carbamoyl)-2-methyl-2,4,5,6-tetrahydrocyclopenta[c]pyrrol-4-yl)carbamate] | 10 nM
Cn1c(Cl)c2c(c1C(=O)Nc1ccc(F)c(Cl)c1)CCC2NC(=O)OCc1cn[nH]n1 (single isomer, unassigned) [Compound 106, (2H-1,2,3-Triazol-4-yl)methyl (3-chloro-1-((3-chloro-4-fluorophenyl)carbamoyl)-2-methyl-2,4,5,6-tetrahydrocyclopenta[c]pyrrol-4-yl)carbamate] | 1400 nM
Cn1cnc(COC(=O)NC2CCc3c2c(C2CC2)n(C)c3C(=O)Nc2ccc(F)c(Cl)c2)n1 (single isomer, unassigned) [Compound 90, (1-Methyl-1H-1,2,4-triazol-3-yl)methyl (1-((3-chloro-4-fluorophenyl)carbamoyl)-3-cyclopropyl-2-methyl-2,4,5,6-tetrahydrocyclopenta[c]pyrrol-4-yl)carbamate] | 420 nM
Cn1cc2c(c1C(=O)Nc1ccc(F)c(Cl)c1)CCC2NC(=O)OCc1ccccn1 (stereo not drawn) [Compound 6] | 140 nM
Cn1cc(COC(=O)NC2CCc3c2cn(C)c3C(=O)Nc2ccc(F)c(Cl)c2)nn1 (single isomer, unassigned) [Compound 116, (1-Methyl-1H-1,2,3-triazol-4-yl)methyl (1-((3-chloro-4-fluorophenyl)carbamoyl)-2-methyl-2,4,5,6-tetrahydrocyclopenta[c]pyrrol-4-yl)carbamate] | 50 nM
Cn1cnc(COC(=O)NC2CCc3c2c(Cl)n(C)c3C(=O)Nc2ccc(F)c(Cl)c2)n1 (single isomer, unassigned) [Compound 52, (1-Methyl-1H-1,2,4-triazol-3-yl)methyl (3-chloro-1-((3-chloro-4-fluorophenyl)carbamoyl)-2-methyl-2,4,5,6-tetrahydrocyclopenta[c]pyrrol-4-yl)carbamate] | 310 nM
Cn1cc2c(c1C(=O)Nc1ccc(F)c(Cl)c1)CCC2NC(=O)OC[C@@H]1CCC(=O)N1 (single isomer, unassigned) [Compound 118] | 160 nM
Cn1cc2c(c1C(=O)Nc1ccc(F)c(Cl)c1)CCC2NC(=O)OCc1c[nH]nn1 (single isomer, unassigned) [Compound 60, (1H-1,2,3-Triazol-4-yl)methyl (1-((3-chloro-4-fluorophenyl)carbamoyl)-2-methyl-2,4,5,6-tetrahydrocyclopenta[c]pyrrol-4-yl)carbamate] | 60 nM
Cn1cc2c(c1C(=O)Nc1ccc(F)c(Cl)c1)CCC2NC(=O)OCc1cnco1 (single isomer, unassigned) [Compound 36, Oxazol-5-ylmethyl (1-((3-chloro-4-fluorophenyl)carbamoyl)-2-methyl-2,4,5,6-tetrahydrocyclopenta[c]pyrrol-4-yl)carbamate] | 20 nM
Cn1cc2c(c1C(=O)Nc1ccc(F)c(Cl)c1)CCC2NC(=O)C1CC1 (single isomer, unassigned) [Compound 23, N-(3-Chloro-4-fluorophenyl)-4-(cyclopropanecarboxamido)-2-methyl-2,4,5,6-tetrahydrocyclopenta [c]pyrrole-1-carboxamide] | 120 nM
Cn1cc2c(c1C(=O)Nc1ccc(F)c(Cl)c1)CCC2NC(=O)OCc1nc[nH]n1 (single isomer, unassigned) [Compound 57, (1H-1,2,4-Triazol-3-yl)methyl (1-((3-chloro-4-fluorophenyl)carbamoyl)-2-methyl-2,4,5,6-tetrahydrocyclopenta[c]pyrrol-4-yl)carbamate] | 50 nM
Cn1c(Cl)c2c(c1C(=O)Nc1ccc(F)c(Cl)c1)CCCC2NC(=O)OCc1nc[nH]n1 (single isomer, unassigned) [Compound 134, (1H-1,2,4-Triazol-3-yl)methyl (3-chloro-1-((3-chloro-4-fluorophenyl)carbamoyl)-2-methyl-4,5,6,7-tetrahydro-2H-isoindol-4-yl)carbamate] | 1900 nM
Cc1c2c(c(C(=O)Nc3ccc(F)c(Cl)c3)n1C)CCC2NC(=O)OCc1ncn(C)n1 (single isomer, unassigned) [Compound 82, (1-Methyl-1H-1,2,4-triazol-3-yl)methyl (1-((3-chloro-4-fluorophenyl)carbamoyl)-2,3-dimethyl-2,4,5,6-tetrahydrocyclopenta[c]pyrrol-4-yl)carbamate] | 110 nM
CCn1cc2c(c1C(=O)Nc1ccc(F)c(Cl)c1)CCC2NC(=O)OCc1ccn(C)n1 (single isomer, unassigned) [Compound 27, (1-Methyl-1H-pyrazol-3-yl)methyl (1-((3-chloro-4-fluorophenyl)carbamoyl)-2-ethyl-2,4,5,6-tetrahydrocyclopenta[c]pyrrol-4-yl)carbamate] | 1500 nM
Cn1c(C(=O)Nc2ccc(F)c(Cl)c2)c2c(c1C1CC1)C(NC(=O)OCc1nc[nH]n1)CC2 (single isomer, unassigned) [Compound 99, (1H-1,2,4-Triazol-3-yl)methyl (1-((3-chloro-4-fluorophenyl)carbamoyl)-3-cyclopropyl-2-methyl-2,4,5,6-tetrahydrocyclopenta[c]pyrrol-4-yl)carbamate] | 330 nM
Cn1cc2c(c1C(=O)Nc1ccc(F)c(Cl)c1)CCC2NC(=O)OCCC#N (single isomer, unassigned) [Compound 49, 2-Cyanoethyl (1-((3-chloro-4-fluorophenyl)carbamoyl)-2-methyl-2,4,5,6-tetrahydrocyclopenta[c]pyrrol-4-yl)carbamate] | 60 nM

Same assay, conditions: Hepatitis B virus, HepDE19, 168 h, HepDE19 cells, Tet-free medium, 7 day-incubation, rcDNA measured by Quantigene 2.0 bDNA assay, top concentration 25 μM; read-out: DE-19 bDNA EC50

Structure (SMILES) | EC50
Cn1cnc(COC(=O)NC2CCCc3c2c(Cl)n(C)c3C(=O)Nc2ccc(F)c(Cl)c2)n1 (single isomer, unassigned) [Compound 94, (1-Methyl-1H-1,2,4-triazol-3-yl)methyl (3-chloro-1-((3-chloro-4-fluorophenyl)carbamoyl)-2-methyl-4,5,6,7-tetrahydro-2H-isoindol-4-yl)carbamate] | 440 nM
Cn1cc2c(c1C(=O)Nc1ccc(F)c(Cl)c1)CCC2NC(=O)OCc1nc[nH]n1 (racemic) [Compound 54, (1H-1,2,4-triazol-3-yl)methyl (1-((3-chloro-4-fluorophenyl)carbamoyl)-2-methyl-2,4,5,6-tetrahydrocyclopenta[c]pyrrol-4-yl)carbamate] | 60 nM
COC(=O)NC1CCc2c1c[nH]c2C(=O)Nc1ccc(F)c(Cl)c1 (stereo not drawn) [Compound 9, methyl 1-(3-chloro-4-fluorophenylcarbamoyl)-2,4,5,6-tetrahydrocyclopenta[c]pyrrol-4-ylcarbamate] | 3000 nM
Cn1cnc(COC(=O)NC2CCc3c2cn(C)c3C(=O)Nc2ccnc(C(F)F)c2)n1 (single isomer, unassigned) [Compound 81, (1-methyl-1H-1,2,4-triazol-3-yl)methyl (1-((2-(difluoromethyl)pyridin-4-yl)carbamoyl)-2-methyl-2,4,5,6-tetrahydrocyclopenta[c]pyrrol-4-yl)carbamate] | 600 nM
Cn1cnc(COC(=O)NC2CCc3c2cn(C)c3C(=O)Nc2ccc(F)c(C(F)F)c2)n1 (single isomer, unassigned) [Compound 70, (1-Methyl-1H-1,2,4-triazol-3-yl)methyl (1-((3-(difluoromethyl)-4-fluorophenyl)carbamoyl)-2-methyl-2,4,5,6-tetrahydrocyclopenta[c]pyrrol-4-yl)carbamate] | 70 nM
Cn1cc2c(c1C(=O)Nc1ccc(F)c(Cl)c1)CCCC2NC(=O)C1CC1 (single isomer, unassigned) [Compound 76, N-(3-chloro-4-fluorophenyl)-4-(cyclopropanecarboxamido)-2-methyl-4,5,6,7-tetrahydro-2H-isoindole-1-carboxamide] | 1000 nM

Same assay, conditions: read-out: DE-19 bDNA EC50; HepDE19 cells, Tet-free medium, 7 day-incubation, rcDNA measured by Quantigene 2.0 bDNA assay, top concentration 25 μM

Structure (SMILES) | EC50
Cn1cc2c(c1C(=O)Nc1ccc(F)c(Cl)c1)CCC2NC(=O)OCc1nn[nH]n1 (single isomer, unassigned) [Compound 150, (2H-Tetrazol-5-yl)methyl(1-((3-chloro-4-fluorophenyl)carbamoyl)-2-methyl-2,4,5,6-tetrahydrocyclopenta[c]pyrrol-4-yl)carbamate] | 6800 nM
Cn1cnc(COC(=O)NC2CCc3c2c(-c2ccccc2)n(C)c3C(=O)Nc2ccc(F)c(Cl)c2)n1 (single isomer, unassigned) [Compound 108, (1-Methyl-1H-1,2,4-triazol-3-yl)methyl (1-((3-chloro-4-fluorophenyl)carbamoyl)-2-methyl-3-phenyl-2,4,5,6-tetrahydrocyclopenta[c]pyrrol-4-yl)carbamate] | 5200 nM
CCc1n[nH]nc1COC(=O)NC1CCc2c1cn(C)c2C(=O)Nc1ccc(F)c(Cl)c1 (single isomer, unassigned) [Compound 141, (5-Ethyl-2H-1,2,3-triazol-4-yl)methyl(1-((3-chloro-4-fluorophenyl)carbamoyl)-2-methyl-2,4,5,6-tetrahydrocyclopenta[c]pyrrol-4-yl)carbamate] | 1200 nM
COC(=O)NC1CCn2c(C(=O)Nc3ccc(F)c(Cl)c3)ccc21 (single isomer, unassigned) [Compound 39, Methyl (5-((3-chloro-4-fluorophenyl)carbamoyl)-2,3-dihydro-1H-pyrrolizin-1-yl)carbamate] | 15000 nM
